Where two headings read alike, the source gives them in different places.
How the values were obtained:
HIV-1 CAP210 pseudovirus = assay: HIV-1 whole virus inhibition assay, CAP210 pseudovirus (luciferase, TZM-bl cells); assay type: cell-based
Method: (§1) The HIV pseudoviruses were produced from the plasmids that were kindly donated by Dr Mthunzi-Kufa (CSIR, South Africa). Competent DH5α cells and STBL2 cells were transformed with envelope (CAP210.2.00.E8 and Q23.17) and backbone plasmid (HIV-1 SG3 ΔEnv) through heat-shock at 42 °C for 90 seconds and cooled in ice for 5 minutes. The transformed cells were grown in Luria Bertani medium containing 100 μg mL^−1 ampicillin and glycerol stocks were prepared. The transformed cells were grown at 37 °C in a 200 rpm shaking incubator overnight and the plasmids were isolated from the cells using a GeneJET plasmid Miniprep Kit (ThermoFisher Scientific Inc). The purity of the isolated plasmids was assessed for purity using Nanodrop. The HEK 293T cells were co-transfected with the backbone (10 μg) and envelope plasmids (5 μg) using the PolyFect Transfection Reagent (QIAGEN N.V) for 8–12 hours and the transfected cells were grown for 48 hours producing pseudoviruses which were collected, and stocks stored at −80 °C.
(§2) The compounds were serial diluted from 100 to1.56 μM in 96 well plates (Separation Scientific SA (Pty) Ltd) and incubated with either CAP210 or Q23 pseudoviruses (200 TCID50) and incubated for 1 hour. The TZM-bl cells (1 × 10^5 cells per mL containing 7.5 μg mL^−1 DEAE-dextran) were added and incubated for 48 hours. The 96 well plates were centrifuged, and the supernatant was removed leaving only 50 μL in each well. The Bright-Glo™ Luciferase substrate (Anatech Instruments (Pty) Ltd) (50 μL) was added to each well and incubated for 2 minutes in the dark and chemiluminescence readings were taken in a Corning® 96-well white polystyrene plate using a SpectraMax® Paradigm® Multi-Mode Microplate Reader.

HIV-1 Q23 pseudovirus = assay: HIV-1 whole virus inhibition assay, Q23 pseudovirus (luciferase, TZM-bl cells); assay type: cell-based
Method: as §1, §2

TZM-bl cells = assay: Cytotoxicity in TZM-bl cells by MTT assay; assay type: cell-based; details: pyrazole vs benzofuran precursor
Method: (§3) All cell culture reagents and cell growth medium were purchased from Sigma-Aldrich/Merck. The cell lines are TZM-bl cells (HeLa cells derived cell that is genetically engineered to contain CD4 and CCR5/CXCR4 receptor) were obtained from NIH AIDS Reagent Program and HEK 293T (derived from human embryonic kidney cells) were received as donations from the lab of Dr Patience Mthunzi, Biophotonics laboratory, CSIR. […] The cells were cultured in T-75 culture flasks (Lasec SA (Pty) Ltd Johannesburg) in Dulbecco's modified Eagle's medium (DMEM) with 3.7 g L^−1 […], 0.05% (v/v) gentamicin/mL, 1% penicillin/streptomycin and 10% heat-inactivated fetal bovine serum (Celtic Molecular Diagnostics). All incubations for tissue cell culture were conducted in a 37 °C, 5% CO2, and 95% humidity incubator.
(§4) The cytotoxicity of compounds was evaluated in TZM-bl cells since these cells are susceptible to HIV infections and would be used for the evaluation of HIV entry inhibition by 3-benzoylbenzofurans and pyrazole derivatives.[74] MTT dye (3-(4,5-dimethylthiazol-2-yl)-2,5-diphenyltetrazolium bromide), which is reduced by viable cells to produce […] purple formazan, was then measured and correlated with cell viability.[75] TZM-bl cells were cultured to confluency in DMEM containing 10% FBS and harvested by centrifugation at 1200 × g for 5 minutes. The cells were counted at 1 × 10^5 cells per mL per well and were seeded overnight, followed by treatment with serially diluted compounds from 500 to 0.98 μM for 48 hours. The peripheral blood mononuclear cells (PBMCs) were isolated from the blood of HIV-negative volunteers, treated with phytohaemagglutinin-protein (PHA, 4 μg mL^−1) to stimulate the cells for 2 hours. PBMCs were diluted in RPMI-1640 medium, counted and 1 × 10^6 cells per mL were treated with compounds (500 to 0.98 μM) for 48 hours. Cells were harvested by centrifugation at 1200 × g for 5 minutes, and the supernatants were removed. For the PBMCs, MTS dye (3-(4,5-dimethylthiazol-2-yl)-5-(3-carboxymethoxyphenylo)-2-(4-sulfophenyl)-2H-tetrazolium) was used.[76] A 100 μL of tetrazolium dye (5 mg mL^−1 MTT prepared in DMEM or 1 : 9 dilution MTS prepared in RPMI-1640) was added to the wells and incubated for 4 to 24 hours. MTT samples were solubilized with 100 μL solubilization buffer (1 mL HCl: 9 mL isopropanol) for 30 minutes, and the absorbance reading was taken at 550 nm and 690 nm wavelengths. MTS sample readings were taken at 490 nm without a solubilization step using the SpectraMax^R Paradigm^R Multi-Mode Detection Platform plate reader (Molecular Devices, California, USA).

[1] = Cytotoxicity in TZM-bl cells by MTT assay; assay type: cell-based; details: human, MTT assay, 48 hours, mean ± SEM
Method: as §3, §4

[2] = Cytotoxicity in PBMCs by MTS assay; assay type: cell-based; details: human, peripheral blood mononuclear cells (PBMCs), PHA-stimulated, HIV-negative PBMCs
Method: as §4

CAP210 pseudovirus = assay: Time of drug addition assay, CAP210 pseudovirus in TZM-bl cells; assay type: cell-based, HIV-1; details: 25 μM, added 0, 2, 4, 6, 8 hours post-infection
Method: Fig. 5 Time of addition assay of CAP210 HIV infection treated with active compounds. TZM-bl cells were infected with CAP210 pseudoviruses and treated with compounds at various hours post-infection. NVP, 3g, and 4b were used at 3 μM, while 5f and 5h were used at 25 μM. The bars represent the mean ± SEM obtained from three independent experiments.
TZM-bl cells (1 × 10^5 cells per mL containing 7.5 μg mL^−1 DEAE-dextran) were infected with CAP210 pseudovirus at 400 TCID50 and incubated at 37 °C for 48 hours. The compounds were added to the wells at various time points (0, 2, 4, 6, and 8 hours) post-infection. […] After 48 hours, the cells were centrifuged at 1200 × g for 5 minutes, culture media was removed, leaving 50 μL, and Bright-Glo substrate (50 μL) was added to detect luciferase activity for 2 minutes at 37 °C. Inhibition of HIV pseudoviruses by active compounds was detected by reading for chemiluminescence using a Corning® 96-well white polystyrene using the SpectraMax® Paradigm® Multi-Mode Microplate Reader.

HIV-1 PR = target: T1, HIV-1 PR (Human immunodeficiency virus type 1 group M subtype B, UniProt P04585); assay: HIV-1 protease inhibition assay (fluorogenic substrate); assay type: biochemical; details: for SI (HIV-1 PR): CC50 PBMCs / IC50 HIV-1 PR
T1 construct: 2 μL recombinant HIV-PR (0.2 μg mL^−1) was added only to reaction wells
Method: Compounds were serially diluted in protease assay buffer (0.1 M CH3COONa, 1 M NaCl, 1 mM EDTA, 1 mM DTT, and 1 mg mL^−1 BSA; pH 4.7), making a final concentration of 75 to 9.4 μM, and 49 μL of compounds were added to wells. 49 μL protease substrate 1 (10 μM) was added to each well, and 2 μL recombinant HIV-PR (0.2 μg mL^−1) was added only to reaction wells except for reaction blanks, where it was replaced with 2 μL assay buffer. The solutions were mixed and incubated at 37 °C for 1 hour. Endpoint fluorescence readings at an excitation wavelength of 370 nm and an emission wavelength of 520 nm.

[3] = tested on: HIV-1 subtype C pseudoviruses; details: cited from earlier work
[4] = TZM-bl, 48 h, read-out: IC50 (μM) CAP210, CAP210 pseudovirus, TZM-bl cells, 48 hours
[5] = TZM-bl, 48 h, read-out: IC50 (μM) Q23, Q23 pseudovirus, TZM-bl cells, 48 hours
[6] = lowest concentrations tested, Fig. 3

Structure (SMILES): COc1ccc(OC)c(-c2n[nH]cc2-c2c(O)cc(C)c(OC)c2C)c1 [5a, 2-[3-(2,5-Dimethoxyphenyl)-1H-pyrazol-4-yl]-4-methoxy-3,5-dimethylphenol]
- IC50 (HIV-1 CAP210 pseudovirus; [4]): 18.4 ± 3.2 µM
- IC50 (HIV-1 Q23 pseudovirus; [5]): 13.3 ± 1.12 µM
- decrease in cytotoxicity versus precursor (TZM-bl cells): 1 fold
- CC50 at 48 h [1]: 88.9 ± 22.1 µM

Structure (SMILES): COc1ccc(OC)c(-c2n[nH]cc2-c2c(C)c(OC)cc(C)c2O)c1 [5b, 2-[3-(2,5-Dimethoxyphenyl)-1H-pyrazol-4-yl]-4-methoxy-3,6-dimethylphenol]
- IC50 (HIV-1 CAP210 pseudovirus; [4]): 7.87 ± 0.91 µM
- IC50 (HIV-1 Q23 pseudovirus; [5]): 10.1 ± 1.66 µM
- CC50 at 48 h [1]: 46.5 ± 6.66 µM

Structure (SMILES): COc1ccc(OC)c(-c2n[nH]cc2-c2cc(OC)c3ccccc3c2O)c1 [5c, 2-[3-(2,5-Dimethoxyphenyl)-1H-pyrazol-4-yl]-4-methoxynaphthalen-1-ol]
- IC50 (HIV-1 CAP210 pseudovirus; [4]): 20.5 ± 6.8 µM
- IC50 (HIV-1 Q23 pseudovirus; [5]): 13 ± 3.75 µM
- CC50 at 48 h [1]: 47.7 ± 17.7 µM

Structure (SMILES): COc1ccc(Br)cc1-c1n[nH]cc1-c1cc(OC)c2ccccc2c1O [5d, 2-[3-(5-Bromo-2-methoxyphenyl)-1H-pyrazol-4-yl]-4-methoxynaphthalen-1-ol]
- IC50 (HIV-1 CAP210 pseudovirus; [4]): 20.8 ± 1 µM
- IC50 (HIV-1 Q23 pseudovirus; [5]): 16.2 ± 2.55 µM
- CC50 at 48 h [1]: 75 ± 6.4 µM

Structure (SMILES): COc1cc(F)ccc1-c1n[nH]cc1-c1cc(OC)c2ccccc2c1O [5e, 2-[3-(4-Fluoro-2-methoxyphenyl)-1H-pyrazol-4-yl]-4-methoxynaphthalen-1-ol]
- IC50 (HIV-1 CAP210 pseudovirus; [4]): 29.09 ± 0.18 µM
- IC50 (HIV-1 Q23 pseudovirus; [5]): 15.7 ± 8.17 µM
- CC50 at 48 h [1]: 103 ± 11.1 µM

Structure (SMILES): COc1cc(F)ccc1-c1n[nH]cc1-c1cc(O)ccc1O [5f, 2-[3-(4-Fluoro-2-methoxyphenyl)-1H-pyrazol-4-yl]benzene-1,4-diol]
- CC50 at 48 h [2]: 98.2 ± 1.3 µM
- anti-HIV activity (CAP210) (HIV-1 CAP210 pseudovirus; [6]): over 90%
- anti-HIV activity (Q23) (HIV-1 Q23 pseudovirus; [6]): over 90%
- inhibition of HIV infection by time of addition (CAP210 pseudovirus): only inhibited HIV infections when added on the onset of infection
- IC50 (HIV-1 PR): 31.6 ± 3.83 µM
- SI (HIV-1 PR) (HIV-1 PR): 3.1
- CC50 at 48 h [1]: 36.1 ± 7.95 µM

Structure (SMILES): COc1ccc(-c2n[nH]cc2-c2cc(O)ccc2O)c(OC)c1OC [5g, 2-[3-(2,3,4-Trimethoxyphenyl)-1H-pyrazol-4-yl]benzene-1,4-diol]
- IC50 (HIV-1 CAP210 pseudovirus; [4]): 13.8 ± 1.7 µM
- IC50 (HIV-1 Q23 pseudovirus; [5]): < 10 µM
- IC50 (HIV-1 Q23 pseudovirus; {}): 9.93 ± 0.69 µM
- CC50 at 48 h [1]: 140 ± 17.1 µM

Structure (SMILES): COc1ccc(OC)c(-c2n[nH]cc2-c2cc(O)ccc2O)c1 [5h, 2-[3-(2,5-Dimethoxyphenyl)-1H-pyrazol-4-yl]benzene-1,4-diol]
- CC50 at 48 h [2]: 83.2 ± 9.7 µM
- IC50 (HIV-1 CAP210 pseudovirus; [4]): < 10 µM
- IC50 (HIV-1 CAP210 pseudovirus; {}): 6.31 ± 0.31 µM
- IC50 (HIV-1 Q23 pseudovirus; [5]): < 10 µM
- IC50 (HIV-1 Q23 pseudovirus; {}): 8.14 ± 2.63 µM
- inhibition of HIV infection by time of addition (CAP210 pseudovirus): only inhibited HIV infections when added on the onset of infection
- IC50 (HIV-1 PR): 50.7 ± 0.78 µM
- SI (HIV-1 PR) (HIV-1 PR): 1.6
- CC50 at 48 h [1]: 142 ± 13.2 µM

Structure (SMILES): Cc1cn([C@H]2C[C@H](N=[N+]=[N-])[C@@H](CO)O2)c(=O)[nH]c1=O [zidovudine]
- IC50 [3]: 0.05 µM
